Laboratory results as given in the NIST ThermoML archive (doi:10.1021/acs.jced.8b00662).
Numbers after ± are expanded uncertainties.

Columns and labels:
[1] = 100 kPa, Liquid; for viscosity: Falling or rolling sphere viscometry; for mass density: Vibrating tube method
[2] = xn = mol fraction of the nth substance listed; conditions: 100 kPa, Liquid; for viscosity: Falling or rolling sphere viscometry; for mass density: Vibrating tube method

Molecule `c1ccc2c(c1)CCCC2` [1,2,3,4-tetrahydronaphthalene] has a viscosity ([1]; 293.15 K) of 2.233 ± 0.047 mPa·s, a mass density ([1]; 293.15 K) of 968.89 ± 1.2 kg/m3 and a viscosity ([1]; 298.15 K) of 2.019 ± 0.043 mPa·s. The mass density ([1]; 298.15 K) was 964.92 ± 1.2 kg/m3, the viscosity ([1]; 303.15 K) was 1.838 ± 0.039 mPa·s and the mass density ([1]; 303.15 K) was 960.96 ± 1.1 kg/m3. It also gave a viscosity ([1]; 308.15 K) of 1.681 ± 0.036 mPa·s, a mass density ([1]; 308.15 K) of 956.99 ± 1.1 kg/m3 and a viscosity ([1]; 313.15 K) of 1.546 ± 0.033 mPa·s. It also gave a mass density ([1]; 313.15 K) of 953.03 ± 1.1 kg/m3, a viscosity ([1]; 318.15 K) of 1.428 ± 0.03 mPa·s and a mass density ([1]; 318.15 K) of 949.05 ± 1.1 kg/m3. It also gave a viscosity ([1]; 323.15 K) of 1.324 ± 0.028 mPa·s, a mass density ([1]; 323.15 K) of 945.1 ± 1.1 kg/m3 and a viscosity ([1]; 328.15 K) of 1.233 ± 0.026 mPa·s. The mass density ([1]; 328.15 K) was 941.13 ± 1.1 kg/m3, the viscosity ([1]; 333.15 K) was 1.151 ± 0.024 mPa·s and the mass density ([1]; 333.15 K) was 937.17 ± 1.1 kg/m3. For the same molecule, the viscosity ([1]; 338.15 K) was 1.079 ± 0.023 mPa·s, the mass density ([1]; 338.15 K) was 933.19 ± 1.1 kg/m3 and the viscosity ([1]; 343.15 K) was 1.013 ± 0.022 mPa·s. For the same molecule, the mass density ([1]; 343.15 K) was 929.2 ± 1.1 kg/m3.
For `c1ccc2c(c1)CCCC2` [1,2,3,4-tetrahydronaphthalene] + CC(C)C1CCCCC1, the viscosity ([2]; 293.15 K, x1 = 1) was 2.233 ± 0.047 mPa·s, the mass density ([2]; 293.15 K, x1 = 1) was 968.89 ± 1.2 kg/m3 and the viscosity ([2]; 298.15 K, x1 = 1) was 2.019 ± 0.043 mPa·s. For the same molecule, the mass density ([2]; 298.15 K, x1 = 1) was 964.92 ± 1.2 kg/m3, the viscosity ([2]; 303.15 K, x1 = 1) was 1.838 ± 0.039 mPa·s and the mass density ([2]; 303.15 K, x1 = 1) was 960.96 ± 1.1 kg/m3. The viscosity ([2]; 308.15 K, x1 = 1) was 1.681 ± 0.036 mPa·s, the mass density ([2]; 308.15 K, x1 = 1) was 956.99 ± 1.1 kg/m3 and the viscosity ([2]; 313.15 K, x1 = 1) was 1.546 ± 0.033 mPa·s. The mass density ([2]; 313.15 K, x1 = 1) was 953.03 ± 1.1 kg/m3, the viscosity ([2]; 318.15 K, x1 = 1) was 1.428 ± 0.03 mPa·s and the mass density ([2]; 318.15 K, x1 = 1) was 949.05 ± 1.1 kg/m3. It also gave a viscosity ([2]; 323.15 K, x1 = 1) of 1.324 ± 0.028 mPa·s, a mass density ([2]; 323.15 K, x1 = 1) of 945.1 ± 1.1 kg/m3 and a viscosity ([2]; 328.15 K, x1 = 1) of 1.233 ± 0.026 mPa·s. It also gave a mass density ([2]; 328.15 K, x1 = 1) of 941.13 ± 1.1 kg/m3, a viscosity ([2]; 333.15 K, x1 = 1) of 1.151 ± 0.024 mPa·s and a mass density ([2]; 333.15 K, x1 = 1) of 937.17 ± 1.1 kg/m3. It also gave a viscosity ([2]; 338.15 K, x1 = 1) of 1.079 ± 0.023 mPa·s, a mass density ([2]; 338.15 K, x1 = 1) of 933.19 ± 1.1 kg/m3 and a viscosity ([2]; 343.15 K, x1 = 1) of 1.013 ± 0.022 mPa·s. It also gave a mass density ([2]; 343.15 K, x1 = 1) of 929.2 ± 1.1 kg/m3.
`c1ccc2c(c1)CCCC2` [1,2,3,4-tetrahydronaphthalene] + OCC1CC1 gave a viscosity ([2]; 293.15 K, x1 = 1) of 2.233 ± 0.047 mPa·s, a mass density ([2]; 293.15 K, x1 = 1) of 968.89 ± 1.2 kg/m3 and a viscosity ([2]; 298.15 K, x1 = 1) of 2.019 ± 0.043 mPa·s. For the same molecule, the mass density ([2]; 298.15 K, x1 = 1) was 964.92 ± 1.2 kg/m3, the viscosity ([2]; 303.15 K, x1 = 1) was 1.838 ± 0.039 mPa·s and the mass density ([2]; 303.15 K, x1 = 1) was 960.96 ± 1.1 kg/m3. The viscosity ([2]; 308.15 K, x1 = 1) was 1.681 ± 0.036 mPa·s, the mass density ([2]; 308.15 K, x1 = 1) was 956.99 ± 1.1 kg/m3 and the viscosity ([2]; 313.15 K, x1 = 1) was 1.546 ± 0.033 mPa·s. For the same molecule, the mass density ([2]; 313.15 K, x1 = 1) was 953.03 ± 1.1 kg/m3, the viscosity ([2]; 318.15 K, x1 = 1) was 1.428 ± 0.03 mPa·s and the mass density ([2]; 318.15 K, x1 = 1) was 949.05 ± 1.1 kg/m3. For the same molecule, the viscosity ([2]; 323.15 K, x1 = 1) was 1.324 ± 0.028 mPa·s, the mass density ([2]; 323.15 K, x1 = 1) was 945.1 ± 1.1 kg/m3 and the viscosity ([2]; 328.15 K, x1 = 1) was 1.233 ± 0.026 mPa·s. It also gave a mass density ([2]; 328.15 K, x1 = 1) of 941.13 ± 1.1 kg/m3, a viscosity ([2]; 333.15 K, x1 = 1) of 1.151 ± 0.024 mPa·s and a mass density ([2]; 333.15 K, x1 = 1) of 937.17 ± 1.1 kg/m3. For the same molecule, the viscosity ([2]; 338.15 K, x1 = 1) was 1.079 ± 0.023 mPa·s, the mass density ([2]; 338.15 K, x1 = 1) was 933.19 ± 1.1 kg/m3 and the viscosity ([2]; 343.15 K, x1 = 1) was 1.013 ± 0.022 mPa·s. The mass density ([2]; 343.15 K, x1 = 1) was 929.2 ± 1.1 kg/m3.
For `CC(C)C1CCCCC1` [(1-methylethyl)cyclohexane], the viscosity ([1]; 293.15 K) was 1.093 ± 0.023 mPa·s, the mass density ([1]; 293.15 K) was 802.14 ± 0.97 kg/m3 and the viscosity ([1]; 298.15 K) was 1.016 ± 0.022 mPa·s. The mass density ([1]; 298.15 K) was 798.24 ± 0.97 kg/m3, the viscosity ([1]; 303.15 K) was 0.947 ± 0.02 mPa·s and the mass density ([1]; 303.15 K) was 794.34 ± 0.96 kg/m3. The viscosity ([1]; 308.15 K) was 0.886 ± 0.019 mPa·s, the mass density ([1]; 308.15 K) was 790.43 ± 0.96 kg/m3 and the viscosity ([1]; 313.15 K) was 0.831 ± 0.018 mPa·s. For the same molecule, the mass density ([1]; 313.15 K) was 786.51 ± 0.95 kg/m3, the viscosity ([1]; 318.15 K) was 0.782 ± 0.017 mPa·s and the mass density ([1]; 318.15 K) was 782.59 ± 0.95 kg/m3. The viscosity ([1]; 323.15 K) was 0.738 ± 0.016 mPa·s, the mass density ([1]; 323.15 K) was 778.66 ± 0.95 kg/m3 and the viscosity ([1]; 328.15 K) was 0.698 ± 0.015 mPa·s. It also gave a mass density ([1]; 328.15 K) of 774.72 ± 0.94 kg/m3, a viscosity ([1]; 333.15 K) of 0.661 ± 0.014 mPa·s and a mass density ([1]; 333.15 K) of 770.77 ± 0.94 kg/m3. It also gave a viscosity ([1]; 338.15 K) of 0.628 ± 0.013 mPa·s, a mass density ([1]; 338.15 K) of 766.81 ± 0.93 kg/m3 and a viscosity ([1]; 343.15 K) of 0.598 ± 0.013 mPa·s. For the same molecule, the mass density ([1]; 343.15 K) was 762.84 ± 0.93 kg/m3.
`OCC1CC1` [cyclopropylmethanol] showed a viscosity ([1]; 293.15 K) of 3.988 ± 0.085 mPa·s, a mass density ([1]; 293.15 K) of 913.02 ± 1.1 kg/m3 and a viscosity ([1]; 298.15 K) of 3.455 ± 0.074 mPa·s. For the same molecule, the mass density ([1]; 298.15 K) was 908.96 ± 1.1 kg/m3, the viscosity ([1]; 303.15 K) was 3.009 ± 0.064 mPa·s and the mass density ([1]; 303.15 K) was 904.87 ± 1.1 kg/m3. For the same molecule, the viscosity ([1]; 308.15 K) was 2.635 ± 0.056 mPa·s, the mass density ([1]; 308.15 K) was 900.74 ± 1.1 kg/m3 and the viscosity ([1]; 313.15 K) was 2.321 ± 0.049 mPa·s. It also gave a mass density ([1]; 313.15 K) of 896.59 ± 1.1 kg/m3, a viscosity ([1]; 318.15 K) of 2.054 ± 0.044 mPa·s and a mass density ([1]; 318.15 K) of 892.38 ± 1.1 kg/m3. For the same molecule, the viscosity ([1]; 323.15 K) was 1.825 ± 0.039 mPa·s, the mass density ([1]; 323.15 K) was 888.17 ± 1.1 kg/m3 and the viscosity ([1]; 328.15 K) was 1.629 ± 0.035 mPa·s. It also gave a mass density ([1]; 328.15 K) of 883.86 ± 1.1 kg/m3, a viscosity ([1]; 333.15 K) of 1.46 ± 0.031 mPa·s and a mass density ([1]; 333.15 K) of 879.52 ± 1.1 kg/m3. For the same molecule, the viscosity ([1]; 338.15 K) was 1.316 ± 0.028 mPa·s, the mass density ([1]; 338.15 K) was 875.1 ± 1.1 kg/m3 and the viscosity ([1]; 343.15 K) was 1.19 ± 0.025 mPa·s. It also gave a mass density ([1]; 343.15 K) of 870.62 ± 1.1 kg/m3.
Molecule `OCC1CC1` [cyclopropylmethanol] + CC(C)C1CCCCC1 has a viscosity ([2]; 293.15 K, x2 = 0) of 3.988 ± 0.085 mPa·s, a mass density ([2]; 293.15 K, x2 = 0) of 913.02 ± 1.1 kg/m3 and a viscosity ([2]; 298.15 K, x2 = 0) of 3.455 ± 0.074 mPa·s. The mass density ([2]; 298.15 K, x2 = 0) was 908.96 ± 1.1 kg/m3, the viscosity ([2]; 303.15 K, x2 = 0) was 3.008 ± 0.064 mPa·s and the mass density ([2]; 303.15 K, x2 = 0) was 904.87 ± 1.1 kg/m3. For the same molecule, the viscosity ([2]; 308.15 K, x2 = 0) was 2.635 ± 0.056 mPa·s, the mass density ([2]; 308.15 K, x2 = 0) was 900.74 ± 1.1 kg/m3 and the viscosity ([2]; 313.15 K, x2 = 0) was 2.321 ± 0.049 mPa·s. The mass density ([2]; 313.15 K, x2 = 0) was 896.59 ± 1.1 kg/m3, the viscosity ([2]; 318.15 K, x2 = 0) was 2.054 ± 0.044 mPa·s and the mass density ([2]; 318.15 K, x2 = 0) was 892.38 ± 1.1 kg/m3. The viscosity ([2]; 323.15 K, x2 = 0) was 1.825 ± 0.039 mPa·s, the mass density ([2]; 323.15 K, x2 = 0) was 888.17 ± 1.1 kg/m3 and the viscosity ([2]; 328.15 K, x2 = 0) was 1.629 ± 0.035 mPa·s. For the same molecule, the mass density ([2]; 328.15 K, x2 = 0) was 883.86 ± 1.1 kg/m3, the viscosity ([2]; 333.15 K, x2 = 0) was 1.46 ± 0.031 mPa·s and the mass density ([2]; 333.15 K, x2 = 0) was 879.52 ± 1.1 kg/m3. For the same molecule, the viscosity ([2]; 338.15 K, x2 = 0) was 1.317 ± 0.028 mPa·s, the mass density ([2]; 338.15 K, x2 = 0) was 875.1 ± 1.1 kg/m3 and the viscosity ([2]; 343.15 K, x2 = 0) was 1.19 ± 0.025 mPa·s. It also gave a mass density ([2]; 343.15 K, x2 = 0) of 870.62 ± 1.1 kg/m3.
